This is an account of results in patent publication US20130079228A1, “Agricultural spray solution compositions and methods” (priority 2011, published 2013).

In the test the test system is velvetleaf. Briefly: efficacy of glyphosate spray on velvetleaf. In kind it is in vivo. The following applies: in presence of drift reducing adjuvants, especially DR. The source says:
Applicant's invention further contemplates the use of drift management adjuvants on the atomization, drift, patternation, retention, deposit formation, and efficacy of an herbicide spray. The drift of the spray particles decreases by suppressing the formation of fine droplets, i.e., <150 microns in diameter. The impact of drift reducing additives on pesticide efficacy in terms of the effect on the major phases, i.e., the larger droplets, on the dose transfer process is also considered. Two representative drift reducing adjuvants, i.e., (1) polyacrylamide polymers represented by Nalcotrol or Nalcotrol II (N or N2), and (2) biodegradable polymers represented by AgRHO DR-2000 (DR) of Rhone-Poulenc Inc. were considered in mixtures containing glyphosate.
Pattern distributions undergo significant deviations from even distributions using herbicide alone when polymers are added. […] 30% less spray is reflected from the cabbage leaves from mixtures containing DR compared to either water alone or water containing polyacrylamide polymers. Spray retention is reduced by the addition of drift reducing adjuvants. DR is better at wetting the cabbage leaves. […] The efficacy of glyphosate on velvetleaf is enhanced by the presence of drift reducing adjuvants, especially DR. […]

As for `O=C(O)CNCP(=O)(O)O` [glyphosate], the “efficacy of glyphosate on velvetleaf” value is reported as “enhanced”.
